Data taken from patent US20240217968A1, “PHARMACEUTICAL COMPOUND” (DUKE STREET BIO LIMITED, priority 2021, published 2024).

What follows are compounds tested against T1, recombinant human Flag-tagged PARP7 (amino acids 456-657) (Homo sapiens, UniProt Q7Z3E1) (assay: PARP7 biochemical DELFIA assay (auto-MARylation)). Conditions: DELFIA readout, IC50 class.
T1 construct: recombinant human Flag-tagged PARP7 (amino acids 456-657)
T1 sequence (Q7Z3E1 456-657): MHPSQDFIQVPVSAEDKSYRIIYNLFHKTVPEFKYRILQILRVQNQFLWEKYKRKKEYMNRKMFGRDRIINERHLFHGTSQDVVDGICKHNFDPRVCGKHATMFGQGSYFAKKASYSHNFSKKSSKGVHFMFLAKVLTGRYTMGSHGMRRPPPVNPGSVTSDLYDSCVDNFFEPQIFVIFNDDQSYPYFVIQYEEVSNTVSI
Method: A suitable assay may be conducted using 10-30 nM PARP7 (amino acids 456-657), 2 μM biotin-NAD assay solution in 20 mM HEPES (pH 7.5), 100 mM NaCl, 2 mM DTT, 0.1% BSA (w/v), 0.02% Tween (v/v) assay buffer. MARylation may take place for 2-3 h at room temperature and may be detected using a dissociation-enhanced lanthanide fluorescence immunoassay (DELFIA) readout. This assay format has been recently utilised for screening for modulators of PARP7 and other MonoPARP enzymes ([…]. et al. Forced Self-Modification Assays as a Strategy to Screen MonoPARP Enzymes. SLAS Discovery. 25; 241-252, (2020)). A particularly suitable assay is described in the Examples below. Optiplate HB 384-well plates were coated with anti-FLAG antibody, supplied as a 4 mg/ml solution, using a Na2CO3/HCO3 coating buffer at pH 9.6, overnight at 4° C., in order to achieve a final immobilisation per well of 0.3 μg. Wells were then washed 3× in coating wash buffer (PBS/0.05% Tween (v/v)), blocked with 2% BSA (w/v) in coating wash buffer and washed 3 further times prior to assay. For the assay 20 μl of 12.5-37.5 nM recombinant human Flag-tagged PARP7 (amino acids 456-657) was added to each well of the 384-well plate for 30 min at room temperature. 50 nl of test compound in DMSO was added using pintool technology and plates were incubated for a further 30 min at room temperature. 5 μl of 15 μM biotin-NAD^+ assay solution in 20 mM HEPES (pH 7.5), 100 mM NaCl, 2 mM DTT, 0.1% BSA (w/v), 0.02% Tween (v/v) assay buffer was then added and MARylation proceeded for 2-3 h at room temperature prior to the addition of 5 μl of 12 mM NAD^+ quenching solution. After 30 min at room temperature, assay solution was removed and following washing 5 times, 100 μl of a 1:1000 dilution of DELFIA Eu-N1 Streptavidin reagent was added. Plates were then incubated for 30 min at room temperature. Reaction mixture was removed and plates washed 5 times prior to the addition of 25 μl DELFIA enhancement solution. Following incubation for 30 min at room temperature, fluorescence was read on either an Envision or Pherastar FS (Ex337 nm, Em620 nm).

| SMILES | IC50 [nM] |
| --- | --- |
| Cn1c(=O)n(CCOCCC(=O)N2CCN(c3ncc(C(F)(F)F)cn3)CC2)c2cn[nH]c(=O)c21 [Compound 367] | ≤ 100 |
| CC1CN(c2ncc(C(F)(F)F)cn2)CCN1C(=O)CCOCCn1cc(C(F)(F)F)c2c(=O)[nH]ncc21 (single isomer, unassigned) [Compound 371] | ≤ 100 |
| CC1Cc2c(cn[nH]c2=O)N(CCOCCC(=O)N2CCN(c3ncc(C(F)(F)F)cn3)CC2)C1 (single isomer, unassigned) [Compound 64, 3-methyl-1-(2-(3-oxo-3-(4-(5-(trifluoromethyl)pyrimidin-2-yl)piperazin-1-yl)propoxy)ethyl)-2,3,4,6-tetrahydropyrido[2,3-d]pyridazin-5(1H)-one] | ≤ 100 |
| N#Cc1ccc(N2CCN(C(=O)c3cccc(Cc4cccc5c4CCNC5=O)c3)CC2)nc1 [Compound 20] | 100 to 1000 |
| CCc1nc2c(=O)[nH]ncc2n1CCOCCC(=O)N1CCN(c2ncc(C(F)(F)F)cn2)CC1 [Compound 260] | 1000 to 10000 |
| O=C1NCCc2c(NCCOCC(=O)N3CCN(c4ncc(C(F)(F)F)cn4)CC3)cccc21 [Compound 117] | 1000 to 10000 |
| N#Cc1ccc(N2CCN(C(=O)c3cccc(Cc4cccc5c4NCNC5=O)c3)CC2)nc1 [Compound 46] | 100 to 1000 |
| N#Cc1ccc(N2CCN(C(=O)c3cccc(Oc4cccc5c(=O)[nH]ncc45)c3)CC2)nc1 [Compound 29] | 100 to 1000 |
| CC(COCCC(=O)N1CCN(c2ncc(C#N)cn2)CC1)n1cc(C(F)F)c2c(=O)[nH]ncc21 (single isomer, unassigned) [Compound 439] | ≤ 100 |
| O=C(CCOCCn1nc(C(F)(F)F)c2c(=O)[nH]ncc21)N1CCN(c2nc(C(F)(F)F)co2)CC1 [Compound 314] | ≤ 100 |
| CC1CN(C(=O)CCOCCn2nc(C(F)(F)F)c3c(=O)[nH]ncc32)CCN1c1ncc(C(F)(F)F)cn1 (single isomer, unassigned) [Compound 188] | ≤ 100 |
| O=C(CCOCCc1cccc2c(=O)[nH]ncc12)N1CCC(c2cc(C(F)(F)F)on2)CC1 [Compound 219] | 100 to 1000 |
| Cc1nn(C(C)COCCC(=O)N2CCN(c3ncc(C(F)(F)F)cn3)CC2)c2cn[nH]c(=O)c12 (centres unmarked) [Compound 246] | ≤ 100 |
| O=C(CCOCCn1nc(C(F)F)c2c(=O)[nH]ncc21)N1CCN(c2ncc(C(F)(F)F)cn2)CC1 [Compound 236, 3-(difluoromethyl)-1-(2-(3-oxo-3-(4-(5-(trifluoromethyl)pyrimidin-2-yl)piperazin-1-yl)propoxy)ethyl)-1,5-dihydro-4H-pyrazolo[3,4-d]pyridazin-4-one] | ≤ 100 |
| O=C(CCOCCn1cc(C(F)(F)F)c2c(=O)[nH]ncc21)N1CCN(c2ncc(C(F)(F)F)cn2)CC1 [Compound 131, 1-(2-(3-oxo-3-(4-(5-(trifluoromethyl)pyrimidin-2-yl)piperazin-1-yl)propoxy)ethyl)-3-(trifluoromethyl)-1,5-dihydro-4H-pyrrolo[2,3-d]pyridazin-4-one] | ≤ 100 |
| CC(COCCC(=O)N1CCN(c2ccc(C#N)cn2)CC1)n1cc(C(F)F)c2c(=O)[nH]ncc21 (centres unmarked) [Compound 449] | ≤ 100 |
| CC1CN(C(=O)CCOCCn2ncc3c(=O)[nH]ncc32)CCN1c1ncc(C(F)(F)F)cn1 (centres unmarked) [Compound 138] | ≤ 100 |
| CC(COCCC(=O)N1CCN(c2ncc(C#N)cn2)CC1)n1nc(C(F)(F)F)c2c(=O)[nH]ncc21 (single isomer, unassigned) [Compound 321, 2-(4-(3-(2-(4-oxo-3-(trifluoromethyl)-4,5-dihydro-1H-pyrazolo[3,4-d]pyridazin-1-yl)propoxy)propanoyl)piperazin-1-yl) pyrimidine-5-carbonitrile] | ≤ 100 |
| CC(CCOCC(=O)N1CCN(c2ncc(Cl)cn2)CC1)n1cc(C(F)(F)F)c2c(=O)[nH]ncc21 (single isomer, unassigned) [Compound 456] | ≤ 100 |
| O=C(CCOCCn1cc(C(F)(F)F)c2c(=O)[nH]c(=O)[nH]c21)N1CCN(c2ncc(C(F)(F)F)cn2)CC1 [Compound 403] | ≤ 100 |
| CC1CN(c2ncc(C(F)(F)F)cn2)CCN1C(=O)CCOCCn1nc(C(F)(F)F)c2c(=O)[nH]ncc21 (centres unmarked) [Compound 161] | ≤ 100 |
| N#Cc1ccc2oc(N3CCN(C(=O)CCOCCn4cc(C(F)(F)F)c5c(=O)[nH]ncc54)CC3)nc2c1 [Compound 361] | ≤ 100 |

Continued, values first:

| IC50 [nM] | SMILES |
| --- | --- |
| ≤ 100 | CC(COCCC(=O)N1CCN(c2ccc(C(F)(F)F)cn2)CC1)n1nc(C(F)(F)F)c2c(=O)[nH]ncc21 (centres unmarked) [Compound 179] |
| ≤ 100 | CC(CCOCC(=O)N1CCN(c2ncc(C(F)(F)F)cn2)CC1)n1cc(C(F)(F)F)c2c(=O)[nH]ncc21 (single isomer, unassigned) [Compound 455] |
| 1000 to 10000 | O=C(c1cccc(Cc2cccc3c(=O)[nH]ncc23)c1)N1CCN(c2ccccc2)CC1 [Compound 27] |
| ≤ 100 | CC(COCC(=O)N(C)C1CCN(c2ncc(C(F)(F)F)cn2)CC1)n1cc(C(F)(F)F)c2c(=O)[nH]ncc21 (centres unmarked) [Compound 463] |
| 100 to 1000 | N#Cc1ccc(N2CCN(C(=O)c3cccc(COc4cccc5c(=O)[nH]ncc45)c3)CC2)nc1 [Compound 40] |
| 100 to 1000 | Nc1nc(N2CCN(C(=O)CCOCCc3cccc4c(=O)[nH]ncc34)CC2)ncc1C(F)(F)F [Compound 159] |
| ≤ 100 | CN(C(=O)COCCc1cccc2c(=O)[nH]ncc12)C1CCN(c2ncc(C(F)(F)F)cn2)CC1 [Compound 108] |
| ≤ 100 | O=C(CCOCCn1nc(C(F)(F)F)c2c(=O)[nH]ncc21)N1CCN(c2cc(C(F)(F)F)[nH]n2)CC1 [Compound 471] |
| ≤ 100 | CC1Cc2c(cn[nH]c2=O)N(CCOCCC(=O)N2CCN(c3ncc(C(F)(F)F)cn3)CC2)C1 (single isomer, unassigned) [Compound 65, 3-methyl-1-(2-(3-oxo-3-(4-(5-(trifluoromethyl)pyrimidin-2-yl)piperazin-1-yl)propoxy)ethyl)-2,3,4,6-tetrahydropyrido[2,3-d]pyridazin-5(1H)-one] |
| 100 to 1000 | O=C(CCNCCN1CCCc2c1cn[nH]c2=O)N1CCN(c2ncc(C(F)(F)F)cn2)CC1 [Compound 61] |
| ≤ 100 | O=C(CCOCCn1nc(C(F)(F)F)c2c(=O)[nH]ncc21)N1CCN(c2ncc(C3CC3)cn2)CC1 [Compound 315] |
| ≤ 100 | O=C(CCOCCn1nc(C(F)(F)F)c2c(=O)[nH]ncc21)N1CCN(c2nc3ccc(F)cc3o2)CC1 [Compound 183] |
| ≤ 100 | O=C(CCOCCc1cccc2c(=O)[nH]ccc12)N1CCN(c2ncc(C(F)(F)F)cn2)CC1 [Compound 233] |
| 100 to 1000 | N#Cc1ccc(N2CCN(C(=O)c3cccc(Cc4cccc5c4CCCNC5=O)c3)CC2)nc1 [Compound 204] |
| ≤ 100 | CC1CN(C(=O)CCOCCc2cccc3c(=O)[nH]ncc23)CCN1c1ncc(C(F)(F)F)cn1 (centres unmarked) [Compound 89] |
| ≤ 100 | CNC(=O)c1ccc(N2CCN(C(=O)CCOCC(C)n3nc(C(F)(F)F)c4c(=O)[nH]ncc43)CC2)nc1 (single isomer, unassigned) [Compound 305] |
| 100 to 1000 | O=C(CCOCCN1CCc2c1cn[nH]c2=O)N1CCN(c2ncc(C(F)(F)F)cn2)CC1 [Compound 6] |
| ≤ 100 | CC(COCCC(=O)N1CCN(c2ncc(C(F)(F)F)cn2)CC1)n1ncc2c(=O)[nH]ncc21 (centres unmarked) [Compound 168] |
| ≤ 100 | CC(OCCCC(=O)N1CCN(c2ncc(C(F)(F)F)cn2)CC1)c1cccc2c(=O)[nH]ncc12 (single isomer, unassigned) [Compound 122] |
| 100 to 1000 | O=C(CCCCOc1cccc2c(=O)[nH]ncc12)N1CCN(c2ncc(C(F)(F)F)cn2)CC1 [Compound 35] |
| ≤ 100 | O=C(CCOCCc1cccc2c(=O)[nH]ncc12)N1CCN(c2ncc(C(F)(F)F)cn2)C(CO)C1 (centres unmarked) [Compound 148] |
| ≤ 100 | O=C(CCOCCn1nc(C(F)(F)F)c2c(=O)[nH]ncc21)N1CCN(c2nnc(C(F)(F)F)s2)CC1 [Compound 276] |
| ≤ 100 | CC(COCCC(=O)N1CCN(c2ccc(C#N)cn2)CC1)n1cc(C(F)F)c2c(=O)[nH]ncc21 (single isomer, unassigned) [Compound 448] |
| ≤ 100 | Cc1nn(CCOCCC(=O)N2CCN(c3ncc(C(F)(F)F)cn3)C(C)C2)c2cn[nH]c(=O)c12 (centres unmarked) [Compound 256] |
| ≤ 100 | CC(CCOCC(=O)N1CCN(c2ncc(C#N)cn2)CC1)n1nc(C(F)(F)F)c2c(=O)[nH]ncc21 (single isomer, unassigned) [Compound 496] |
